In patent US20240190821A1, “SULFONAMIDE SUBSTITUTED N-(1H-INDOL-7-YL)BENZENESULFONAMIDES AND USES THEREOF” (Triana Biomedicines, Inc., priority 2021, published 2024):
Where two headings read alike, the source gives them in different places.

Columns and labels:
[1] = target: T1, DCAF15-RBM39 ternary complex (Homo sapiens, UniProt Q14498+Q66K64); test: Compound-induced DCAF15-RBM39 ternary complex formation, AlphaLISA; assay type: biochemical
T1 construct: (RRM2)
Procedure, shortened: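 Protein mixture incubated with compounds for one hour at room temperature; AlphaLISA beads then added sequentially, 1-2 h at room temperature after each. No-compound wells served as negative controls; His-tagged biotinylated GST tracked assay performance.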

[2] = tested on: HCT116 cells; test: HCT116 cell viability using CellTiter-Glo; assay type: cell-based; conditions: Homo sapiens, HCT-116, HCT116, 72 h, read-out: 3-Day CTG IC50 in HCT116
Description: Example 108: Measurement of HCT116 Cell Viability Using CellTiter-Glo
HCT116 cells with the passage number ranging from 13 to 25 were plated in an opaque-walled 384 well plate (Corning, Cat. #3765, Corning, NY) at a density of 1000 cells/well in 50 μl medium containing McCoy's 5A medium (Cat. #16600082, ThermoFisher, Waltham, MA), 10% Fetal Bovine Serum (Cat. #26140, ThermoFisher, Waltham, MA) and 1% Pen-Strep (Cat. #. 15070063, ThermoFisher, Waltham, MA). After overnight incubation, cells were treated with various concentrations of compounds (0-10 μM) in DMSO (final concentration of 0.2% DMSO) for 72 h. CellTiter-Glo® Reagent (Cat. #G7573, Promega, Waltham, MA) was then added to all wells. The plates were placed on an orbital shaker to mix the content and induce cell lysis. The plates were then incubated at room temperature for 10 minutes to stabilize luminescent signal. The luminescence was recorded using Envision multilabel plate reader (Perkin-Elmers, Waltham, MA) and the data was fit by using Excel-fit (Microsoft, Redmond, WA).

[3] = target: DCAF15 (Homo sapiens, UniProt Q66K64); test: Binary interaction between compounds and DCAF15, HTRF competition assay; assay type: binding
Sequence of DCAF15 (Q66K64 whole entry): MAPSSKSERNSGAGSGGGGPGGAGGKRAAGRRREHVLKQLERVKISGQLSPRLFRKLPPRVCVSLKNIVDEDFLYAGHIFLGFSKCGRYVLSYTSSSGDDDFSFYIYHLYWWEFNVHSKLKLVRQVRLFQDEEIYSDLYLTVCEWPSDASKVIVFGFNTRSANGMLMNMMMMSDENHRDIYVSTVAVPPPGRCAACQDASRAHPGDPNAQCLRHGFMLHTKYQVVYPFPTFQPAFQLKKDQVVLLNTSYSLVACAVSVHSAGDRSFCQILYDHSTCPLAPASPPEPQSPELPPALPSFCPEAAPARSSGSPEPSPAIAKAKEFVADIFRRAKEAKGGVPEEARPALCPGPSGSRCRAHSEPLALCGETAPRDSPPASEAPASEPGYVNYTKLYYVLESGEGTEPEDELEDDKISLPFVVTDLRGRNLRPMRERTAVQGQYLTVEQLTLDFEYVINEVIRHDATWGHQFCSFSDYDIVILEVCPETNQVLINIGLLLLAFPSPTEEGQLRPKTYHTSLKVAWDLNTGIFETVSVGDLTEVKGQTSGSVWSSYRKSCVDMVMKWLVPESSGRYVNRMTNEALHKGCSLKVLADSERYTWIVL
Sequence of DCAF15 (Q16531 whole entry partner): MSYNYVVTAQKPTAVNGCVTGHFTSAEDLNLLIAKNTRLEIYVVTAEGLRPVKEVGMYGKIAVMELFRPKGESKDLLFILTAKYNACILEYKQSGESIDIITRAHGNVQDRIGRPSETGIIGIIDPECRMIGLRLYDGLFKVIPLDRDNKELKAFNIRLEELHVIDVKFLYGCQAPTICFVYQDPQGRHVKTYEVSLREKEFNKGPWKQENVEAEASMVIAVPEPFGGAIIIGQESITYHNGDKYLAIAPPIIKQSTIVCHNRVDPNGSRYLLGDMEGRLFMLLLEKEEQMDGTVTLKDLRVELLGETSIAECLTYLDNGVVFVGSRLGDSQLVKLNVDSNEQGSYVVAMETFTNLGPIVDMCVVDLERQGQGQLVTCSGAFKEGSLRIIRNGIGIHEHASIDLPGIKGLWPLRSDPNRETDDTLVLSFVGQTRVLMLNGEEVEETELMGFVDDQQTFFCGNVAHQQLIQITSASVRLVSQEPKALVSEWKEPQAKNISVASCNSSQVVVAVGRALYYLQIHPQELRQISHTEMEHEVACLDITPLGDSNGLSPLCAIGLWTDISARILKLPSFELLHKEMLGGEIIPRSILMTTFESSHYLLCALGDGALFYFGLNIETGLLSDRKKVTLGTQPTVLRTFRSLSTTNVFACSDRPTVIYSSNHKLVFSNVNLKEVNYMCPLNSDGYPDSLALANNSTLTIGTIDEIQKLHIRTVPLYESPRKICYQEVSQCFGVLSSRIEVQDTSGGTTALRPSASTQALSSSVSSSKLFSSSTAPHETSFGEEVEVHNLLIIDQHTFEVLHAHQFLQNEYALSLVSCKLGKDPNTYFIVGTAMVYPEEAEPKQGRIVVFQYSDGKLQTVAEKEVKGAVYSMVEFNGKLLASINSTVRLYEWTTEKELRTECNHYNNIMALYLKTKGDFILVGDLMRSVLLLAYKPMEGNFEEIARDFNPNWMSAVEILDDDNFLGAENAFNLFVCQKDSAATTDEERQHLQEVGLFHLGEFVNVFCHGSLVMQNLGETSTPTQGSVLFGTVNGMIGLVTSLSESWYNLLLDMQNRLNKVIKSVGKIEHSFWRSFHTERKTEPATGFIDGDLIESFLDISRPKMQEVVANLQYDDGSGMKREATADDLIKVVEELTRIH
Procedure, shortened: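 HTRF competition format: DCAF15 premixed 15 min at room temperature with anti-6His-Eu cryptate antibody, then combined with tracer and compound. Binding derived from ratiometric signal with titration curves; no-DCAF15 wells as controls.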

[4] = AlphaLISA, His-tagged DCAF15 complex and biotin-carrying RBM39, read-out: Ternary-RBM39 (RRM2) EC50
[5] = HTRF competition with Alexa Fluor 647 tracer, His-tagged DCAF15 complex, read-out: DCAF15 IC50

T1 sequence (Q66K64 whole entry): as the sequence (Q66K64 whole entry) above
T1 sequence (Q14498 250-328 limits assumed): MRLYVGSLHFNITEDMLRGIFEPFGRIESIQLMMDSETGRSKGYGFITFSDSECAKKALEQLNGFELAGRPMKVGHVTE
T1 sequence (Q16531 whole entry partner): as the sequence (Q16531 whole entry partner) above

EC50 [1, 4] [µM] | IC50 [2] [µM] | IC50 [3, 5] [µM] | Structure (SMILES) | EC50 [1] [µM] | IC50 [3] [µM]
< 1 | < 1 |  | COCCNS(=O)(=O)c1ccc(S(=O)(=O)Nc2ccc(Cl)c3c(Cl)c[nH]c23)cc1 [Compound 2, N^1-(3,4-dichloro-1H-indol-7-yl)-N^4-(2-methoxyethyl)benzene-1,4-disulfonamide] |  | 
< 1 |  | < 5 | O=S(=O)(Nc1ccc(Cl)c2c(Cl)c[nH]c12)c1ccc(C(F)(F)C2CCNCC2)cc1 [Compound 70, N-(3,4-dichloro-1H-indol-7-yl)-4-(difluoro(piperidin-4-yl)methyl)benzene sulfonamide] |  | 
< 1 |  | < 5 | CCCN(C(C)=O)c1ccc(S(=O)(=O)Nc2ccc(Cl)c3c(Cl)c[nH]c23)cc1 [Compound 71, N-(4-(N-(3,4-dichloro-1H-indol-7-yl)sulfamoyl)phenyl)-N-propylacetamide] |  | 
 |  |  | O=S(=O)(F)c1ccc(S(=O)(=O)Nc2ccc(Cl)c3c(Cl)c[nH]c23)cc1 [Compound 72, 4-(N-(3,4-dichloro-1H-indol-7-yl)sulfamoyl)benzenesulfonyl fluoride] | < 1 | < 20
< 5 |  | < 20 | O=S(=O)(Nc1ccc(Cl)c2c(Cl)c[nH]c12)c1cccc(Br)c1 [Compound 76, 3-bromo-N-(3,4-dichloro-1H-indol-7-yl)benzenesulfonamide] |  | 
< 1 |  | < 5 | Cc1ccc(NS(=O)(=O)c2ccc(S(=O)(=O)N(C)C3CCNCC3)cc2)c2[nH]cc(C#N)c12 [Compound 78, N^1-(3-cyano-4-methyl-1H-indol-7-yl)-N^4-methyl-N^4-(piperidin-4-yl) benzene-1,4-disulfonamide] |  | 
< 1 |  | < 20 | Cc1ccc(NS(=O)(=O)c2ccc(S(=O)(=O)N3CCC(N(C)C)C3)cc2)c2[nH]cc(C#N)c12 (centres unmarked) [Compound 80, N-(3-cyano-4-methyl-1H-indol-7-yl)-4-((3-(dimethylamino)pyrrolidine-1-yl)sulfonyl)benzenesulfonamide] |  | 
< 1 |  | < 5 | Cc1ccc(NS(=O)(=O)c2ccc(S(=O)(=O)N3CCC(N)CC3)cc2)c2[nH]cc(C#N)c12 [Compound 81, 4-((4-aminopiperidin-1-yl)sulfonyl)-N-(3-cyano-4-methyl-1H-indol-7-yl) benzenesulfonamide] |  | 
< 1 |  | < 20 | Cc1ccc(NS(=O)(=O)c2ccc(S(=O)(=O)N3CCN(C4COC4)CC3)cc2)c2[nH]cc(C#N)c12 [Compound 86, N-(3-cyano-4-methyl-1H-indol-7-yl)-4-((4-(oxetan-3-yl)piperazin-1-yl)sulfonyl)benzenesulfonamide] |  | 
< 5 |  | < 20 | O=S(=O)(Nc1ccc(Cl)c2cc[nH]c12)c1ccc(S(=O)(=O)N2CCNCC2)cc1 [Compound 87, N-(4-chloro-1H-indol-7-yl)-4-(piperazin-1-ylsulfonyl)benzenesulfonamide] |  | 
< 1 |  | < 20 | N#Cc1ccc(NS(=O)(=O)c2ccc(S(=O)(=O)N3CCNCC3)cc2)c2[nH]cc(Cl)c12 [Compound 88, N-(3-chloro-4-cyano-1H-indol-7-yl)-4-(piperazin-1-ylsulfonyl)benzenesulfonamide] |  | 
< 1 |  | < 100 | Cc1ccc(NS(=O)(=O)c2ccc(S(=O)(=O)N3CCN4CCCC4C3)cc2)c2[nH]cc(C#N)c12 (centres unmarked) [Compound 91, N-(3-cyano-4-methyl-1H-indol-7-yl)-4-((hexahydropyrrolo[1,2-a]pyrazin-2(1H)-yl)sulfonyl)benzenesulfonamide] |  | 
< 1 |  | < 20 | Cc1ccc(NS(=O)(=O)c2ccc(S(=O)(=O)N3CC4CNCC4C3)cc2)c2[nH]cc(C#N)c12 (centres unmarked) [Compound 92, N-(3-cyano-4-methyl-1H-indol-7-yl)-4-((hexahydropyrrolo[3,4-c]pyrrol-2(1H)-yl)sulfonyl)benzenesulfonamide] |  | 
< 5 | < 1 |  | Cc1ccc(NS(=O)(=O)c2cccc(C#N)c2)c2[nH]cc(C(F)F)c12 [Compound 100, 3-cyano-N-(3-(difluoromethyl)-4-methyl-1H-indol-7-yl)benzenesulfonamide] |  | 
< 5 | < 1 | < 100 | Cc1ccc(NS(=O)(=O)c2cc(F)cc(C#N)c2)c2[nH]cc(C(F)F)c12 [Compound 101, 3-cyano-N-(3-(difluoromethyl)-4-methyl-1H-indol-7-yl)-5-fluorobenzene sulfonamide] |  | 
< 5 |  | < 100 | N#Cc1cccc(S(=O)(=O)Nc2ccc(I)c3c(Cl)c[nH]c23)c1 [Compound 102, N-(3-chloro-4-iodo-1H-indol-7-yl)-3-cyanobenzenesulfonamide] |  | 
 | < 1 |  | Cc1ccc(NS(=O)(=O)c2cccc(C#N)c2)c2[nH]cc(C#N)c12 [Compound E-7820, E-7820, reference compound] |  | 
< 1 | < 1 |  | NS(=O)(=O)c1ccc(S(=O)(=O)Nc2cccc3c(Cl)c[nH]c23)cc1 [Indisulam, indisulam, reference compound] |  | 
< 20 |  | < 20 | O=C1CCC(NS(=O)(=O)c2ccc(S(=O)(=O)Nc3ccc(Cl)c4c(Cl)c[nH]c34)c(F)c2)CN1 (centres unmarked) [compound 105] |  | 
< 1 |  | < 5 | CC1CN(S(=O)(=O)c2ccc(S(=O)(=O)Nc3ccc(Cl)c4c(Cl)c[nH]c34)cc2)CCN1 (centres unmarked) [compound 109] |  | 
< 1 |  | < 5 | CCCN(C(=O)CN)c1ccc(S(=O)(=O)Nc2ccc(Cl)c3c(Cl)c[nH]c23)cc1 [compound 131] |  | 

Structure (SMILES) | EC50 [1, 4] [µM] | IC50 [2] [µM] | IC50 [3, 5] [µM] | EC50 [1] [µM] | IC50 [3] [µM]
Cc1ccc(NS(=O)(=O)c2ccc(S(=O)(=O)N3C[C@H]4C[C@@H](C3)N4)cc2)c2[nH]cc(C#N)c12 [Compound 94, 4-(((1R,5S)-3,6-diazabicyclo[3.1.1]heptan-3-yl)sulfonyl)-N-(3-cyano-4-methyl-1H-indol-7-yl)benzenesulfonamide] | < 1 |  | < 20 |  | 
